Numbered stars: 1 amine (or outer) side, 2 acyl side, 3 side chain; on linkers, the order of the positions; unused ones are H or OH. Bridge positions count the residues as written; N and C are the ends. Square brackets hold non-standard residues; d marks the D form. Peptide text beside a SMILES is read from it. * marks the point of attachment. ξ: configuration not given here. DOTA = O=C(O)CN1CCN(CC(=O)O)CCN(CC(=O)*)CCN(CC(=O)O)CC1; Phe(2-Cl) = N[C@@H](Cc1ccccc1Cl)C(=O)O; 1Nal = N[C@@H](Cc1cccc2ccccc12)C(=O)O; Phe(2-Me) = Cc1ccccc1C[C@H](N)C(=O)O; Chg = N[C@H](C(=O)O)C1CCCCC1; Pen = CC(C)(S)[C@H](N)C(=O)O; αMeP = C[C@@]1(C(=O)O)CCCN1; CH2 = C([*:1])[*:2]; ξC = NC(CS)C(=O)O

The test deals with T1, human DLL3 (Homo sapiens, UniProt Q9NYJ7).
T1 construct: biotin (biotinylated)
T1 sequence (Q9NYJ7 27-618): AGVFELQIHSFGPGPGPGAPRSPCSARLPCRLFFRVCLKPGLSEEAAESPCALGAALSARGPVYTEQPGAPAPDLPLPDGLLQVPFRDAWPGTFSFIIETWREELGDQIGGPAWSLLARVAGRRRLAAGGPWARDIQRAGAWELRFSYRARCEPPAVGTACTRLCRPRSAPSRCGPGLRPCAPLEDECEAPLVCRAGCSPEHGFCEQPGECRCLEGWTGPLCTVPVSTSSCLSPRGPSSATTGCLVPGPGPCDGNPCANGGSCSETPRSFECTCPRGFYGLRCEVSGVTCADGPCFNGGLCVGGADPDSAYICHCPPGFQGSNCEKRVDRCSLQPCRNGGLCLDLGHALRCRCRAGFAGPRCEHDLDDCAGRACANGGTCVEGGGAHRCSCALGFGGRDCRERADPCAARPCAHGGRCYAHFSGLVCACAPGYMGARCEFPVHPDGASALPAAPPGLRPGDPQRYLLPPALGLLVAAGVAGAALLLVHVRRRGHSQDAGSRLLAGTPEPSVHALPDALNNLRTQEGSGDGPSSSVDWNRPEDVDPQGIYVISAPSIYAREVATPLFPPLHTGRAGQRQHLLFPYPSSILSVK
In words: Affinity determination by Surface Plasmon Resonance (SPR), Biacore, 1:1 binding model. Particulars: biotinylated human DLL3 on streptavidin chip, 25° C.; NB = nonbinding. Summed up: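 SPR with biotinylated human DLL3 captured on a streptavidin chip, with a reference surface subtracted. Samples were injected at several concentrations at 100 μL/min in phosphate buffer with 137 mM NaCl, 2.7 mM KCl, 0.05% P20 and 2% DMSO. Kinetic and affinity constants came from a 1:1 binding fit.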

In general, Kd refers to the free concentration of one partner at which half of the binding sites on the other are occupied at equilibrium, for simple one-to-one binding. For the compound `CC(=O)N[C@H](C(=O)N[C@@H](CO)C(=O)N[C@@H](CC(=O)O)C(=O)N[C@H]1CSSC[C@@H](C(=O)N2CCC[C@@]2(C)C(=O)N[C@@H](Cc2ccccc2Cl)C(=O)N[C@@H](CC(=O)O)C(=O)N[C@H](CCCCNC(=O)CN2CCN(CC(=O)O)CCN(CC(=O)O)CCN(CC(=O)O)CC2)C(N)=O)NC(=O)[C@H](CC(N)=O)NC(=O)[C@H](Cc2c[nH]c3ccccc23)NC(=O)[C@H](CCC(N)=O)NC(=O)[C@H](CC(C)C)NC(=O)[C@H](Cc2cccc3ccccc23)NC1=O)C1CCCCC1` [compound 118, Ac-(Chg)-S-D-C(3)-(1Nal)-L-Q-W-N-C(3)-(aMe-P)-(2Cl-Phe)-D-D-Lys(DOTA)-CONH2] (Ac-[Chg]SDC[1Nal]LQWNC[αMeP][Phe(2-Cl)]D[dK](DOTA)-NH2; disulfide 4-10), the Kd was found to be 0.74 nM.
In the case of `CC(=O)N[C@H](C(=O)N[C@@H](CO)C(=O)N[C@@H](CC(=O)O)C(=O)N[C@H]1CSSC[C@@H](C(=O)N2CCC[C@@]2(C)C(=O)N[C@@H](Cc2ccccc2C)C(=O)N[C@@H](CC(=O)O)C(=O)N[C@H](CCCCNC(=O)CN2CCN(CC(=O)O)CCN(CC(=O)O)CCN(CC(=O)O)CC2)C(N)=O)NC(=O)[C@H](CC(N)=O)NC(=O)[C@H](Cc2c[nH]c3ccccc23)NC(=O)[C@H](CCC(N)=O)NC(=O)[C@H](CC(C)C)NC(=O)[C@H](Cc2cccc3ccccc23)NC1=O)C1CCCCC1` [compound 119, Ac-(Chg)-S-D-C(3)-(1Nal)-L-Q-W-N-C(3)-(aMe-P)-(2Me-Phe)-D-D-Lys(DOTA)-CONH2] (Ac-[Chg]SDC[1Nal]LQWNC[αMeP][Phe(2-Me)]D[dK](DOTA)-NH2; disulfide 4-10) it was 0.65 nM; in that of `CC(=O)N[C@H](C(=O)N[C@@H](CO)C(=O)N[C@@H](CC(=O)O)C(=O)N[C@H]1CSSC(C)(C)[C@@H](C(=O)N2CCC[C@@]2(C)C(=O)N[C@@H](Cc2ccccc2)C(=O)N[C@@H](CC(=O)O)C(=O)N[C@H](CCCCNC(=O)CN2CCN(CC(=O)O)CCN(CC(=O)O)CCN(CC(=O)O)CC2)C(N)=O)NC(=O)[C@H](CC(N)=O)NC(=O)[C@H](Cc2c[nH]c3ccccc23)NC(=O)[C@H](CCC(N)=O)NC(=O)[C@H](CC(C)C)NC(=O)[C@H](Cc2cccc3ccccc23)NC1=O)C1CCCCC1` [compound 120, Ac-(Chg)-S-D-C(3)-(1Nal)-L-Q-W-N-Pen(3)-(aMe-P)-F-D-D-Lys(DOTA)-CONH2] (Ac-[Chg]SDC[1Nal]LQWN[Pen][αMeP]FD[dK](DOTA)-NH2; disulfide 4-10), over 30 nM.
In the case of `CC(=O)N[C@H](C(=O)N[C@@H](CO)C(=O)N[C@@H](CC(=O)O)C(=O)NC1CSCSC[C@@H](C(=O)N2CCC[C@@]2(C)C(=O)N[C@@H](Cc2ccccc2)C(=O)N[C@@H](CC(=O)O)C(=O)N[C@H](CCCCNC(=O)CN2CCN(CC(=O)O)CCN(CC(=O)O)CCN(CC(=O)O)CC2)C(N)=O)NC(=O)[C@H](CC(N)=O)NC(=O)[C@H](Cc2c[nH]c3ccccc23)NC(=O)[C@H](CCC(N)=O)NC(=O)[C@H](CC(C)C)NC(=O)[C@H](Cc2cccc3ccccc23)NC1=O)C1CCCCC1` (stereo partly drawn) [compound 121, Ac-(Chg)-S-D-[D-Cys(1)]-(1Nal)-L-Q-W-N-C(1)-(aMe-P)-F-D-D-Lys(DOTA)-CONH2] (Ac-[Chg]SD[ξC][1Nal]LQWNC[αMeP]FD[dK](DOTA)-NH2; linker 4-10 via CH2) it was over 30 nM; in that of `CC(=O)N[C@H](C(=O)N[C@@H](CO)C(=O)N[C@@H](CC(=O)O)C(=O)N[C@H]1CSCSC[C@H](C(=O)N2CCC[C@@]2(C)C(=O)N[C@@H](Cc2ccccc2)C(=O)N[C@@H](CC(=O)O)C(=O)N[C@H](CCCCNC(=O)CN2CCN(CC(=O)O)CCN(CC(=O)O)CCN(CC(=O)O)CC2)C(N)=O)NC(=O)[C@H](CC(N)=O)NC(=O)[C@H](Cc2c[nH]c3ccccc23)NC(=O)[C@H](CCC(N)=O)NC(=O)[C@H](CC(C)C)NC(=O)[C@H](Cc2cccc3ccccc23)NC1=O)C1CCCCC1` [compound 122, Ac-(Chg)-S-D-C(1)-(1Nal)-L-Q-W-N-[D-Cys(1)]-(aMe-P)-F-D-D-Lys(DOTA)-CONH2] (Ac-[Chg]SDC[1Nal]LQWN[dC][αMeP]FD[dK](DOTA)-NH2; linker 4-10 via CH2), over 30 nM.

Source of the values: US20250186541A1, “DLL3 TARGETING PEPTIDES AND CONSTRUCTS THEREOF” (MARIANA ONCOLOGY INC., priority 2023, published 2025).
